Measured values: patent publication US9363996B2, “Compositions and method for blocking ethylene response in field crops using 3-(cy-clopropyl-l-enyl)-propanoic salt” (Yissum Research Development Company of the Hebrew …, priority 2009, dated 2016)

Legend:
tobacco seedlings = assay: Ethylene-induced chlorophyll degradation in tobacco seedling leaves; format: in vivo, tobacco (Nicotiana tabacum var. 'Samsun'); conditions: ethylene alone
Description: (§1) (1) Abscission—This is a very sensitive model system for studying the effects of plant hormones. Ethylene induces the process of abscission, while auxin delays it. In the laboratory the experimental system is based on plant organ explants, which include the abscission zone. Abscission is induced by exposure to ethylene and at the termination of the experiment the number of abscised organs, usually either leaf blades or petioles are counted and the fraction of abscission is calculated. In the case of fruit, the decrease in fruit retention force is analyzed. In cotton, when WS-CPD (the ethylene-action antagonist herein disclosed) is tested, the whole plants or explants are pretreated by spraying with the antagonist, dissolved in a phosphate buffer solution (10-20 mM, pH 7.0) including 0.1% commercially available Kinetic™ as surfactant, and left to incubate for a predetermined time, usually between 6 and 24 h. The plants or explants are then further exposed for 24 h to ethylene gas (5 to 20 μL L^−1). The plants or explants are then ventilated and incubated for the required time under controlled conditions. At the end of the experiment the percentage of abscission is determined. (2) Chlorophyll degradation—This is a standard model for studying senescence. Plant material (whole plants, excised leaves or leaf discs) are pretreated. In cotton, tobacco and wheat, when WS-CPD is tested, the whole plants or explants are pretreated by spraying with the antagonist, dissolved in phosphate buffer solution (10-20 mM, pH 7.0) including 0.1% commercially available Kinetic™ surfactant, and left to incubate for a predetermined time, usually between 6 and 241. The plants or explants are then further exposed for 24 h to ethylene gas (1 to 100 μL L^−1), or sprayed with Ethephon™ (wheat; 250 to 750 μL L^−1). The plants or explants are then ventilated and incubated for the required time under controlled conditions. At the end of the experiment a dimethylsulfoxide (DMSO) extract of the plant tissue is prepared, and the chlorophyll content of the extract is determined by spectrophotometric analysis. The chlorophyll content is reported either on a fresh, dry weight basis, or on a surface area basis. (3) Epinasty—This is also one of the classical methods for studying ethylene effects in plants. The extent of ethylene-induced epinasty of leaves is determined by measuring the change of the angle between the petiole and the stem shoot or blade. After exposure of the intact plant to ethylene, the upright grown leaves bend downward. The increase in the angle values (degrees) between petiole and the stem is used as a measure of the effect of the ethylene. […]

[1] = tested on: young cotton leaf explants; assay: Ethylene-induced petiole abscission of young cotton leaf explants; format: in vivo, cotton (Gossyium hirsutum barbadense L.); conditions: ethylene alone
Description: as §1, with “The plants or explants are then further exposed for 24 h to ethylene gas (1 to 100 μL L^−1), or sprayed with Ethephon™ (wheat; 250 to 750 μL L^−1). The plants or explants are then ventilated and incubated for the required time under controlled conditions.” left out, “The chlorophyll content is reported either on a fresh, dry weight basis, or on a surface area basis. (3) Epinasty—This is also one of the classical methods for studying ethylene effects in plants.” left out, “blade.” for “blade. After exposure of the intact plant to ethylene, the upright grown leaves bend downward. The increase in the angle values (degrees) between petiole and the stem is used as a measure of the effect of the ethylene.”

wheat seedlings = assay: Third leaf growth of young wheat seedlings exposed to ethylene; format: in vivo, wheat (Triticum turgidum var. 'Gdera'); conditions: for inhibition of growth of the third leaf: additional experiment
wheat plants [2] = assay: Ethephon-induced chlorophyll degradation in wheat leaves, glumes and chaffs; format: in vivo, wheat (Triticum turgidum var. 'Gdera'); conditions: for reduction of chlorophyll content: chaffes; for reduction of chlorophyll content / reduction in chlorophyll content: milky stage I; for decrease of chlorophyll content: Ethephon 250 and 750 μL L^−1 at milky stage I, after 5-6 days; for reduction in chlorophyll content: glumes
Description: as §1, with “ethylene. When WS-CPD is tested on cotton and wheat plants, the whole plants are pretreated by spraying with the antagonist dissolved in phosphate buffer solution (10-20 mM, pH 7.6) including 0.1% Kinetic™ as surfactant, and left to incubate for a predetermined time, usually between 6 and 24 h. The plants are then further exposed for 24 h to ethylene gas (cotton, 5 to 10 μL L^−1), or sprayed with Ethephon™ (wheat, 250 to 750 μL L^−1). The plants are then ventilated and incubated for the required time under controlled conditions. The epinastic effect is expressed by measuring the degree values of the downward curvature between the blade and petiole (cotton, FIGS. 1-3) or between the blade and the stem (wheat, FIGS. 31 and 32). (4) Wheat Grain yield—This is a common test of the effects of exposure of monocot plants either to environmental stresses such as drought that induce senescence by increasing endogenous ethylene production. Excessive internal or external ethylene will accelerate senescence which will lead to reduced grain yield. In this project the intact plants were grown in the greenhouse up to the spike hading at milky stage I and II. The plants were then sprayed with the dissolved WS-CPD in phosphate buffer solution (10 mM, pH 7.6) including 0.1% Kinetic™ as surfactant. Young Cotton Seedlings” for “ethylene.”

wheat plants [3] = assay: Ethephon-induced flag leaf epinasty of wheat plants after spike heading; format: in vivo, wheat (Triticum turgidum var. 'Gdera'); conditions: Ethephon 750 μL L^−1 spray alone
Description: (1) Abscission—This is a very sensitive model system for studying the effects of plant hormones. Ethylene induces the process of abscission, while auxin delays it. In the laboratory the experimental system is based on plant organ explants, which include the abscission zone. Abscission is induced by exposure to ethylene and at the termination of the experiment the number of abscised organs, usually either leaf blades or petioles are counted and the fraction of abscission is calculated. In the case of fruit, the decrease in fruit retention force is analyzed. In cotton, when WS-CPD (the ethylene-action antagonist herein disclosed) is tested, the whole plants or explants are pretreated by spraying with the antagonist, dissolved in a phosphate buffer solution (10-20 mM, pH 7.0) including 0.1% commercially available Kinetic™ as surfactant, and left to incubate for a predetermined time, usually between 6 and 24 h. […] At the end of the experiment the percentage of abscission is determined. […] At the end of the experiment a dimethylsulfoxide (DMSO) extract of the plant tissue is prepared, and the chlorophyll content of the extract is determined by spectrophotometric analysis. […] The extent of ethylene-induced epinasty of leaves is determined by measuring the change of the angle between the petiole and the stem shoot or blade. […]

wheat plants [4] = assay: Wheat grain weight at the milky stages after Ethephon treatment; format: in vivo, wheat (Triticum turgidum var. 'Gdera'); conditions: Ethephon 750 μL L^−1, sandy soil
Description: as §1, with “ethylene. When WS-CPD is tested on cotton and wheat plants, the whole plants are pretreated by spraying with the antagonist dissolved in phosphate buffer solution (10-20 mM, pH 7.6) including 0.1% Kinetic™ as surfactant, and left to incubate for a predetermined time, usually between 6 and 24 h. The plants are then further exposed for 24 h to ethylene gas (cotton, 5 to 10 μL L^−1), or sprayed with Ethephon™ (wheat, 250 to 750 μL L^−1). The plants are then ventilated and incubated for the required time under controlled conditions. The epinastic effect is expressed by measuring the degree values of the downward curvature between the blade and petiole (cotton, FIGS. 1-3) or between the blade and the stem (wheat, FIGS. 31 and 32). (4) Wheat Grain yield—This is a common test of the effects of exposure of monocot plants either to environmental stresses such as drought that induce senescence by increasing endogenous ethylene production. Excessive internal or external ethylene will accelerate senescence which will lead to reduced grain yield. In this project the intact plants were grown in the greenhouse up to the spike hading at milky stage I and II. The plants were then sprayed with the dissolved WS-CPD in phosphate buffer solution (10 mM, pH 7.6) including 0.1% Kinetic™ as surfactant. Young Cotton Seedlings” for “ethylene.”

Question: For `C=C` [ethylene], which “reduction of chlorophyll content” value (tobacco seedlings; mature (lower) leaves) is on record?
Answer: 72%

Question: And the “decrease in chlorophyll content as compared with air-treated leaves” value (tobacco seedlings; young (upper) leaves)?
Answer: 17%

Question: And the “rate of petiole abscission” value [1]?
Answer: accelerated

Question: And the “inhibition of growth of the third leaf” value (wheat seedlings; ethylene 1.6 μL L^−1)?
Answer: 20%

Question: What about the “inhibition of growth of the third leaf” value (wheat seedlings; ethylene 20 μL L^−1) of the same compound?
Answer: 35%

Question: What about the “length of the third leaf longer than air-control leaf” value (wheat seedlings; ethylene 1 μL L^−1, continuous exposure) of the same compound?
Answer: 50%

Question: What about the “inhibition of growth of the third leaf compared to air control” value (wheat seedlings; ethylene 10 μL L^−1) of the same compound?
Answer: 50%

Question: And the “inhibition of growth of the third leaf compared to air control” value (wheat seedlings; ethylene 100 μL L^−1)?
Answer: 30%

Question: For `O=P(O)(O)CCCl` [Ethephon, reference compound], which “reduction of chlorophyll content” value (wheat plants [2]; Ethephon 250 μL L^−1) is on record?
Answer: 33%

Question: What about the “reduction of chlorophyll content” value (wheat plants [2]; Ethephon 750 μL L^−1) of the same compound?
Answer: 28%

Question: And the “decrease of chlorophyll content” value (wheat plants [2]; flag leaf)?
Answer: 16-21%

Question: What about the “reduction of the content of chlorophyll” value (wheat plants [2]; flag leaf, Ethephon 750 μL L^−1, milky stage II) of the same compound?
Answer: 33%

Question: And the “chlorophyll lower compared with the untreated control spikes” value (wheat plants [2]; glumes and chaffs, Ethephon 750 μL L^−1, milky stage II)?
Answer: 12%

Question: And the “reduction in chlorophyll content” value (wheat plants [2]; Ethephon 250 μL L^−1)?
Answer: 10%

Question: What about the “reduction in chlorophyll content” value (wheat plants [2]; Ethephon 750 μL L^−1) of the same compound?
Answer: 40%

Question: What about the “decrease of chlorophyll content” value (wheat plants [2]; leaf II) of the same compound?
Answer: 21-22%

Question: And the “reduction of the content of chlorophyll” value (wheat plants [2]; leaf II, Ethephon 750 μL L^−1, milky stage II)?
Answer: 47%

Question: And the flag leaf epinasty (wheat plants [3])?
Answer: strong leaf epinasty

Question: And the “reduction of grain weight” value (wheat plants [4]; stage I)?
Answer: 4%

Question: And the “reduction of grain weight” value (wheat plants [4]; stage II)?
Answer: 18%
